In this assay the target is LRRK2 G2019S enzyme (Homo sapiens (Human), UniProt Q5S007, G2019S). The assay is described as follows: LRRK2 G2019S TR-FRET biochemical assay (LRRKtide substrate). The note with it: 134 μM ATP. The protocol: Detection Reaction Conditions • 1× TR-FRET dilution buffer • 10 mM EDTA • 2 nM antibody • 23° C. reaction temperature • 10 μL total reaction volume
Compounds were prepared by initially diluting to 1 mM with DMSO. 35 μL of reference compound solution, 35 μL of test compound solution, and 35 μL HPE were successively added to the source plate (384-well assay plate, Labcyte). The plates were centrifuged at 2500 rpm for 1 minute and sealed in foil. […] The assay plate was centrifuged at 2500 rpm for 1 minute, and sealed with foil.
To perform the enzyme reaction, 5 μL of LRRKtide substrate and kinase mixture in assay buffer was added to all wells of the assay plate. The plate was centrifuged to concentrate the mixture at the bottom of the wells. The assay plate was incubated at 23° C. for 20 minutes. Following incubation, 5 μL of 2× ATP in assay buffer was added to each well, and plates were centrifuged to concentrate the mixture at the bottom of the wells. The plate was incubated at 23° C. for 60 minutes.
To perform the detection of the reaction, EDTA completely mixed in TR-FRET dilution buffer was added to antibody reagent. 10 μL of detection reagent was added to all wells of each well of the assay plate and the plate was centrifuged to concentrate the mixture at the bottom of the wells. The plate was then incubated at 23° C. for 60 minutes.

Chain of LRRK2 G2019S enzyme (Q5S007 whole entry G2019S): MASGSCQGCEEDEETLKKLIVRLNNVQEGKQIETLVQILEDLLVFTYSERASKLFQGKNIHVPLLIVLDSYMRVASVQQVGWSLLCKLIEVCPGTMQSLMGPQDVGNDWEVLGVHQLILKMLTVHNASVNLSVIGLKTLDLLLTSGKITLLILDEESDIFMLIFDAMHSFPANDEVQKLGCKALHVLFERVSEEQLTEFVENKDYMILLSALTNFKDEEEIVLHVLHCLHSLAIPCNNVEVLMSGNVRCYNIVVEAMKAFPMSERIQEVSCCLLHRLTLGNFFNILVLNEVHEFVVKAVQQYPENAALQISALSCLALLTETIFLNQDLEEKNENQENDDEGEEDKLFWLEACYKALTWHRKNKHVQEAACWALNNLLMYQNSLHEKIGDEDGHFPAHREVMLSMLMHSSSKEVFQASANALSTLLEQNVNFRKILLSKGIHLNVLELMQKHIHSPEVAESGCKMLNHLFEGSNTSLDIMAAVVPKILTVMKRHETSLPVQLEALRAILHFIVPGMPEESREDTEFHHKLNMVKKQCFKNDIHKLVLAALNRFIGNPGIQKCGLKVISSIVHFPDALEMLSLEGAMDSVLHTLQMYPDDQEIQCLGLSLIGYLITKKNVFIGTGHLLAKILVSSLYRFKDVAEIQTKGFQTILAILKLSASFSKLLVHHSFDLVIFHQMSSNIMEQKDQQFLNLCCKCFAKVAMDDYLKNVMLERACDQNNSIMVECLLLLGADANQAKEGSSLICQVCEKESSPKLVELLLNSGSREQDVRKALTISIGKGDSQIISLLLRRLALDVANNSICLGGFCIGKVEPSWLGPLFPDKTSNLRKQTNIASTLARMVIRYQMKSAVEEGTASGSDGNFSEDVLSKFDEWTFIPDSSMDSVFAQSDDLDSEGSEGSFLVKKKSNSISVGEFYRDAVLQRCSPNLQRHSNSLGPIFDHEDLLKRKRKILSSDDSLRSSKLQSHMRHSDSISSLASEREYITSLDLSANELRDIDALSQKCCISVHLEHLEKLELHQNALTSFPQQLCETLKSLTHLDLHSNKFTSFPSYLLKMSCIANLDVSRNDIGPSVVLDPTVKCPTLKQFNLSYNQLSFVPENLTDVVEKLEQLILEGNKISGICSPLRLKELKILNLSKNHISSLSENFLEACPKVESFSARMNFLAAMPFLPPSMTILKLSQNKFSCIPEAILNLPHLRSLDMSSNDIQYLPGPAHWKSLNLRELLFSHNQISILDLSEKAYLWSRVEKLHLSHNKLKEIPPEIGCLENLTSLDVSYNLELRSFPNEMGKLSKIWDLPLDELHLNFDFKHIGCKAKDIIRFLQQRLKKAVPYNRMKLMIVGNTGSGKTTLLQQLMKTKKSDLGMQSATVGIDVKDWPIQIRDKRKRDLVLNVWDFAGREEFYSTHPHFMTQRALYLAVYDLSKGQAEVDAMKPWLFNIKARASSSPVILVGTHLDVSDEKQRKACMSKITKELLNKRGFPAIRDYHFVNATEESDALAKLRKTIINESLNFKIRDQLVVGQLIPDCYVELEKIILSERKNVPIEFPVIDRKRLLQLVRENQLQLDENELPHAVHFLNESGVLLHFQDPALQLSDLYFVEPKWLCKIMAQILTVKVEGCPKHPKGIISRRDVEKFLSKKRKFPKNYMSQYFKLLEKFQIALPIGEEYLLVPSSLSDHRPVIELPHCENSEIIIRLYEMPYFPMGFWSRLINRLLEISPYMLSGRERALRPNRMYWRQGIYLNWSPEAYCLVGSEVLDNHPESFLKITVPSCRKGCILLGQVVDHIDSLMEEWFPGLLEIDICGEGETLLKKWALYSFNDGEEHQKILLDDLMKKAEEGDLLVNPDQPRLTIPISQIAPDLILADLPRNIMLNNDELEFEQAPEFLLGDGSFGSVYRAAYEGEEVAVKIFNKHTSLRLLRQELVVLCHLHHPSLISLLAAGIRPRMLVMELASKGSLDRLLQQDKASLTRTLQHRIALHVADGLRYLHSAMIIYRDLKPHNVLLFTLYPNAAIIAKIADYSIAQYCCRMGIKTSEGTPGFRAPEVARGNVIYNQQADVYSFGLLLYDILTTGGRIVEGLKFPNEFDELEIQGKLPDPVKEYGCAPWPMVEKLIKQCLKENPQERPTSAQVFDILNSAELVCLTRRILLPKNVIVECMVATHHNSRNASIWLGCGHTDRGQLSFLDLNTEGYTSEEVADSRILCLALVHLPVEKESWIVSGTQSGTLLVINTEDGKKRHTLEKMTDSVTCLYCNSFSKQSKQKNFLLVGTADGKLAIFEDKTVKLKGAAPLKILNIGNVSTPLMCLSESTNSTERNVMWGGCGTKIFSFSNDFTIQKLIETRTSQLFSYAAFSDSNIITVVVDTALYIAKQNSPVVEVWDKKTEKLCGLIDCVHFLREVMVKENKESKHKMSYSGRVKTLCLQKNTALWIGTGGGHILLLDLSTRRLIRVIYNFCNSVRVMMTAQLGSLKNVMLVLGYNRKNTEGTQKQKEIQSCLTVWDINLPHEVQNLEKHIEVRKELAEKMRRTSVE

`[2H]C([2H])([2H])N1CCC(n2cc(Nc3ncc(C(F)(F)F)c(NCC)n3)c(C)n2)(C([2H])([2H])[2H])C1=O` (single isomer, unassigned) [Compound 23]: the IC50 (as a rule, the concentration that inhibits the measured activity by half) was < 30 nM.
As for `[2H]C([2H])([2H])N1CCC(n2cc(Nc3ncc(C(F)(F)F)c(NCC)n3)c(C)n2)(C([2H])([2H])[2H])C1=O` (single isomer, unassigned) [Compound 24], the IC50 is < 30 nM.
Take `CNc1nc(Nc2cnn(C3CN(C4COC4)CCC3(F)F)c2Cl)ncc1C(F)(F)F` (single isomer, unassigned) [Compound 28]: the IC50 is < 30 nM.
Turning to `CNc1nc(Nc2cnn(C3CN(C4COC4)CCC3(F)F)c2Cl)ncc1C(F)(F)F` (single isomer, unassigned) [Compound 29], the IC50 is < 30 nM.
The figure for `CNc1nc(Nc2cnn(C3CCCC3(C)O)c2C)ncc1C(F)(F)F` (single isomer, unassigned) [Compound 30] is 30 to 60 nM.
In turn, `CNc1nc(Nc2cnn(C3CCCC3(C)O)c2C)ncc1C(F)(F)F` (single isomer, unassigned) [Compound 31] returned an IC50 of 30 to 60 nM.
Regarding `CCNc1nc(Nc2cnn3c2CC(C#N)C3)ncc1C(F)(F)F` (single isomer, unassigned) [Compound 52A], the IC50 was < 30 nM.
For `CCNc1nc(Nc2cnn3c2CC(C#N)C3)ncc1C(F)(F)F` (single isomer, unassigned) [Compound 52B], the IC50 is < 30 nM.
For the compound `CCNc1nc(Nc2cnn3c2CC(n2nccn2)C3)ncc1C(F)(F)F` (single isomer, unassigned) [Compound 54A], the IC50 was < 30 nM.
As to `CCNc1nc(Nc2cnn3c2CC(n2nccn2)C3)ncc1C(F)(F)F` (single isomer, unassigned) [Compound 54B], the IC50 is < 30 nM.
Turning to `COc1nc(Nc2cn(C3(C)CCNC3=O)nc2C)ncc1Br` (single isomer, unassigned) [Compound 64A], the IC50 is < 30 nM.
The value for `COc1nc(Nc2cn(C3(C)CCNC3=O)nc2C)ncc1Br` (single isomer, unassigned) [Compound 64B] was < 30 nM; that for `COc1nc(Nc2cn(C3(C)CCOC3=O)nc2C)ncc1Br` (single isomer, unassigned) [Compound 90] was < 30 nM; that for `CCNc1nc(Nc2cnn(C3CCCN(CC(F)F)C3)c2C)ncc1C(F)(F)F` (single isomer, unassigned) [Compound 92] was < 30 nM.
`CNc1nc(Nc2cn(C3(C)CCOC3=O)nc2Cl)ncc1C(F)(F)F` (single isomer, unassigned) [Compound 99]: the IC50 was < 30 nM.
The figure for `CCNc1nc(Nc2cn(C3(C)CCOC3=O)nc2C)ncc1C(F)(F)F` (single isomer, unassigned) [Compound 100] is < 30 nM; for `COc1nc(Nc2cn(C3(C)CCOC3=O)nc2C)ncc1Br` (single isomer, unassigned) [Compound 102] it is < 30 nM.
As to `Cc1nn(C2(C)CCOC2=O)cc1Nc1ncc(C(F)(F)F)c(C2CC2)n1` (single isomer, unassigned) [Compound 103], the IC50 was < 30 nM.
On to `CNc1nc(Nc2cn(C3(C)CCOC3=O)nc2C2CC2)ncc1C(F)(F)F` (single isomer, unassigned) [Compound 113], for which the IC50 is < 30 nM.
The figure for `CCNc1nc(Nc2cn(C3(C)CCOC3=O)nc2C2CC2)ncc1Br` (single isomer, unassigned) [Compound 115] is < 30 nM; for `CCNc1nc(Nc2cnn(C3CCCN(CC(F)F)C3)c2C)ncc1C(F)(F)F` (single isomer, unassigned) [Compound 116] it is < 30 nM.
`CCNc1nc(Nc2cn(C3(C)CCOC3=O)nc2Cl)ncc1C(F)(F)F` (single isomer, unassigned) [Compound 117]: the half-inhibitory concentration (IC50) was < 30 nM.
For the compound `CNc1nc(Nc2cn(C3(C)CCOC3=O)nc2C)ncc1C(F)(F)F` (single isomer, unassigned) [Compound 119], the IC50 is < 30 nM.
For `Cc1nn(C2(C)CCOC2=O)cc1Nc1ncc(C(F)(F)F)c(C2CC2)n1` (single isomer, unassigned) [Compound 120], the IC50 was < 30 nM.
`CNc1nc(Nc2cn(C3(C)CCOC3=O)nc2Cl)ncc1C(F)(F)F` (single isomer, unassigned) [Compound 123]: the 50% inhibitory concentration (IC50) is < 30 nM.
As for `CNc1nc(Nc2cn(C3(C)CCOC3=O)nc2C)ncc1C(F)(F)F` (single isomer, unassigned) [Compound 124], the IC50 is < 30 nM.
The figure for `CCNc1nc(Nc2cn(C3(C)CCOC3=O)nc2C)ncc1C(F)(F)F` (single isomer, unassigned) [Compound 125] is < 30 nM; for `CCNc1nc(Nc2cnn(C3CNCCC3(F)F)c2C)ncc1C(F)(F)F` (single isomer, unassigned) [Compound 200] it is < 30 nM.
For `CCNc1nc(Nc2cnn(C3CNCCC3(F)F)c2C)ncc1C(F)(F)F` (single isomer, unassigned) [Compound 201], the IC50 is < 30 nM.
Regarding `CCN1CCC(F)(F)C(n2ncc(Nc3ncc(C(F)(F)F)c(NC)n3)c2Cl)C1` (single isomer, unassigned) [Compound 202], the IC50 is < 30 nM.
As to `CCN1CCC(F)(F)C(n2ncc(Nc3ncc(C(F)(F)F)c(NC)n3)c2Cl)C1` (single isomer, unassigned) [Compound 203], the IC50 was < 30 nM.
`CCNc1nc(Nc2cnn(C3CN(CC)CCC3(F)F)c2Cl)ncc1C(F)(F)F` (single isomer, unassigned) [Compound 204]: the IC50 is < 30 nM.
Consider `CCNc1nc(Nc2cnn(C3CN(CC)CCC3(F)F)c2Cl)ncc1C(F)(F)F` (single isomer, unassigned) [Compound 205], for which the IC50 was < 30 nM.
In the case of `CCNc1nc(Nc2cn(C3C[C@@H]3C#N)nc2Cl)ncc1C(F)(F)F` (single isomer, unassigned) [Compound 206], the IC50 was < 30 nM.
The value for `CCNc1nc(Nc2cn(C3C[C@H]3C#N)nc2Cl)ncc1C(F)(F)F` (single isomer, unassigned) [Compound 207] was < 30 nM; that for `CNc1nc(Nc2cn(C3C[C@@H]3C#N)nc2C2CC2)ncc1C(F)(F)F` (single isomer, unassigned) [Compound 208] was < 30 nM; that for `CNc1nc(Nc2cn(C3C[C@H]3C#N)nc2C2CC2)ncc1C(F)(F)F` (single isomer, unassigned) [Compound 209] was < 30 nM.
The figure for `N#C[C@@H]1CC1n1cc(Nc2ncc(C(F)(F)F)c(NCC(F)F)n2)c(C2CC2)n1` (single isomer, unassigned) [Compound 210] is < 30 nM.
In the case of `N#C[C@@H]1CC1n1cc(Nc2ncc(C(F)(F)F)c(NCC(F)F)n2)c(C2CC2)n1` (single isomer, unassigned) [Compound 211], the IC50 was < 30 nM.
Take `COc1nc(Nc2cn(C3C[C@H]3C#N)nc2C2CC2)ncc1Br` (single isomer, unassigned) [Compound 213]: the IC50 is < 30 nM.
The figure for `CCNc1nc(Nc2cn(C3C[C@@H]3C#N)nc2C2CC2)ncc1Br` (single isomer, unassigned) [Compound 214] is < 30 nM; for `CCNc1nc(Nc2cn(C3C[C@H]3C#N)nc2C2CC2)ncc1Br` (single isomer, unassigned) [Compound 215] it is < 30 nM.
`CCNc1nc(Nc2cn(C3(CF)CCOC3=O)nc2C)ncc1C(F)(F)F` (single isomer, unassigned) [Compound 216]: the IC50 was < 30 nM.

These data come from US9932325B2 (Denali Therapeutics Inc., priority 2015, dated 2018).
